# Laboratory results published in patent US8877908B2, “Stimulus-responsive apta chelamers” (The Administrators of the Tulane Educational Fund, priority 2008, dated 2014).
# Like-named read-outs stand apart in the source and are kept apart here.
# Tests used:
# bovine trypsin = target: T1, bovine trypsin (Bos taurus, UniProt P00760); experiment: Fluorescence anisotropy titration of fluorescein-labelled ODNs with increasing trypsin; type: binding; settings: for change of trypsin affinity on lowering salt to 5 mM KCl, 25 mM Hepes, pH 7.4: low salt versus high salt; for Kd: preformed quadruplex, 2 nM ODN
# T1 construct: purchased Sigma Aldrich; host or cells: bovine pancreas
# T1 sequence (P00760 24-246): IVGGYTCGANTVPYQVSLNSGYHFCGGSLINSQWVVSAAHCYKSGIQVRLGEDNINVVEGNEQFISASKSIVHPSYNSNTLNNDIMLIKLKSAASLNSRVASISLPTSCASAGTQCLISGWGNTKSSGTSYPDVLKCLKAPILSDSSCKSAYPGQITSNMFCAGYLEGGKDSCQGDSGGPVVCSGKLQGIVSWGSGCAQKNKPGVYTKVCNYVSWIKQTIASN
# Procedure: The next step was to determine whether the intramolecular quadruplex conformation of AC 1 leads to enhanced affinity towards trypsin as a result of bidentate binding (FIG. 15, pathway A). […] AC 1 and ODNs 2 through 4 were first incubated in the presence of potassium cations to induce the quadruplex fold. The preformed quadruplexes were then incubated with increasing concentrations of trypsin at 25° C. (25 mM KCl, 200 mM NaCl, 25 mM Hepes, pH 7.4) for 30 min. Preliminary fluorescence anisotropy studies were conducted to ascertain that equilibrium was reached after 30 min and that there was no significant quenching of the fluorescein emission. The anisotropy associated with the fluorescein emission was followed at 525 nm (excitation at 495 nm). The resultant binding isotherms (FIG. 14) were fitted using non-linear regression to a 1:1 binding stoichiometry. […] In fact, the dissociation constant was determined to be 8.1×10^−7 M, a value that indicates a greater than 100 and 30 fold binding enhancement when compared to monodentate controls ODN 3 and ODN 2, respectively. […] This dissociation constant is attributed to non-specific interactions between bovine trypsin and ODN 4, since trypsin (pI=10.5) is positively charged at pH=7.4 and thus can potentially associate with the negatively charged DNA backbone. Support for such non-specific interactions comes from incubation of trypsin with ODN 4 where the concentration of salts were decreased to only 5 mM KCl, 25 mM Hepes, pH 7.4 (see, e.g., FIG. 23).
# Immediately prior to each fluorescence polarization experiment, fresh stock solutions of trypsin were made in Hepes buffer (20 mM KCl, 200 mM NaCl, 25 mM Hepes, pH 7.4). Concentration of the trypsin in the stock solutions were determined using ultra-violet absorbance at 280 nm (ε=37669 M^−1cm^−1). Serial dilutions from the stock solution of trypsin were made into eppendorf tubes (spanning a range from 1×10^−9 to 1×10^−3M). To these trypsin-containing tubes were added aliquots of ODNs, such that the total concentration of ODNs in each eppendorf tube was 2 nM. After gently agitating, 150 uL from each eppendorf was transferred to respective borosilicate glass culture tubes and the tubes were allowed to equilibrate for 30 minutes at 25° C. (preliminary fluorescence anisotropy studies were conducted to ascertain that equilibrium was reached after 30 min and that there was no significant quenching of the fluorescein emission). Fluorescence polarization at 25° C. was determined on a Molecular Probes Beacon 2000 Fluorescence Polarization Instrument, using 495 and 525 nm narrow band pass filters for excitation and emission, respectively. Values of millipolarization (mP) from the Beacon 2000 were converted to millianisotropy (mA) using equation 1, where A is the anisotropy value, and P is the observed polarization.
# 1:1 (trypsin:ODN) binding mode: Anisotropy was plotted against trypsin (receptor protein) concentration and fitted to Equation 2 (a single-site model without receptor depletion), wherein Af is the anisotropy of the unbound ODN, Ab is the anisotropy of the bound ODN, Or is the total added ODN concentration (in M units), and Kd is the dissociation constant. Non-linear regression analysis using Origin 8.0 software was used for fitting the experimental data.
# Cooperative binding mode: Binding equilibrium best described as cooperative binding was fitted to the Hill equation (Equation 3), where the fluorescence quantum yield of fluorescein is constant and the ODN substrate is limiting. R is the total protein concentration, R1/2 (or [trypsin]1/2) is the protein concentration required for half-maximal binding, and h is the Hill coefficient.
# thrombin = thrombin (Homo sapiens, UniProt P00734); settings: literature; cited from earlier work
# streptavidin = target: T2, streptavidin (Streptomyces avidinii, UniProt P22629); experiment: Streptavidin-immobilized microplate assay, hemin/H2O2 oxidation of ABTS, absorbance at 414 nm; settings: 5 μM ODN with 5 μM hemin, 1 h incubation, washed, ABTS 2 mM
# T2 construct: purchased Thermo Fisher Scientific (NUNC)
# Procedure: As shown schematically in FIG. 28, streptavidin-immobilized, NUNC 96 well microplates were obtained from Thermo Fisher Scientific. Each well was pre-washed three times with 100 μL of PBS buffer (20 mM NaH2PO4, 30 mM Na2HPO4, 100 mM NaCl, pH 7.4). To each well, 100 μL of sample ODNs (5 μM, previously annealed from 95° C.) with hemin (5 μM) in Hepes buffer (50 mM HEPES, 20 mM KCl, 200 mM NaCl, 1% DMSO, 0.05% Triton X-100, pH 8.0) was incubated for one hour with gentle agitation. Sample ODN solutions were then removed by inversion, and each well washed three times with PBS buffer. Plate wells were then refilled with 98.5 μL of the Hepes buffer containing ABTS (2,2′-azino-bis(3-ethylbenzthiazoline-6-sulphonic acid)). Hydrogen peroxide (2 mM) was then introduced to each well bringing the total assay volume to 100 μL and total ABTS concentration to 2 mM. Visible light absorbance at 414 nm was then immediately followed on a Molecular Devices SpectraMax 190 microplate reader (FIG. 27).
# [1] = 5 mM KCl, 25 mM Hepes, pH 7.4, read-out: dissociation constant (Kd) for trypsin, low-salt conditions
# [2] = high salt (20 or 25 mM KCl, 200 mM NaCl, 25 mM Hepes, pH 7.4), 25° C., 1:1 fit, read-out: dissociation constant (Kd) for trypsin
# T2 sequence (P22629 25-183): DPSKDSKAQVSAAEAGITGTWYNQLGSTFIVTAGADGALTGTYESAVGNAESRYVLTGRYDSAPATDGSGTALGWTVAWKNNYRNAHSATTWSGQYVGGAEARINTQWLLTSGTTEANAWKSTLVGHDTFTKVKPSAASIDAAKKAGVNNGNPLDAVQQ
Substance,"change of trypsin affinity on lowering salt to 5 mM KCl, 25 mM Hepes, pH 7.4 (bovine trypsin)",Kd (bovine trypsin; [1]),Kd (bovine trypsin; [2]),further results
"AC 1 (TTGGTTGGTGTGGTTGGT; 5' dT fluorescein conjugate, ba and ipt arms attached, further chemistry not given here)",only slight change in affinity,2.8 µM,0.81 µM,"potency of quadruplex form in binding trypsin relative to double helical structure (duplex 1:5) (bovine trypsin; Kd of quadruplex versus [trypsin]1/2 of duplex): about 20 times; binding enhancement compared to monodentate control ODN 2 (bovine trypsin; ratio of Kd values, high salt): > 30 fold; binding enhancement compared to monodentate control ODN 3 (bovine trypsin; ratio of Kd values, high salt): greater than 100 fold"
"ODN 2 (TTGGTTGGTGTGGTTGGT; 5' ba arm attached, fluorescein-dT conjugate, further chemistry not given here)",,,29 µM,
"ODN 3 (TTGGTTGGTGTGGTTGGT; 3' ipt arm attached, fluorescein-dT conjugate, further chemistry not given here)",,,90 µM,
thrombin binding aptamer: core sequence 5′-GGTTGGTGTGGTTGG-3′ (SEQ ID NO:6),,,,dissociation constant (Kd) of complex with thrombin (thrombin): micromolar range
"ODN 4: 5′-TTGGTTGGTGTGGTTGGT-3′, no arms, 5′ terminal dT bearing fluorescein; negative control (listed as DNA, chemistry not fully specified)",significant decrease in the Kd,31 µM,2900 µM,
"AC-X1: hemin binding aptamer core (SEQ ID NO:9) with biotin as small molecule handle for streptavidin (TGGGTAGGGCGGGTTGGGT; DNA, backbone and methylation of C not given here; biotin tethered via linker)",,,,absorbance change at 414 nm versus control HBA well (streptavidin): greater absorbance change
